# Key:
# Type in all cases: cell-based
# [1] = molecular target: T1, F508del (Homo sapiens, UniProt P13569, DEL508-508); test: 3T3 assay: membrane potential optical assay for F508del correction in NIH 3T3 cells; details: for Emax: NIH3T3, read-out: 3T3 Max Activity
# T1 construct: expressed in transfected cells
# Text: 1. Membrane Potential Optical Methods for Assaying F508del Modulation Properties of Compounds
# The assay utilizes fluorescent voltage sensing dyes to measure changes in membrane potential using a fluorescent plate reader (e.g., FLIPR III, Molecular Devices, Inc.) as a readout for increase in functional F508del in NIH 3T3 cells. The driving force for the response is the creation of a chloride ion gradient in conjunction with channel activation by a single liquid addition step after the cells have previously been treated with compounds and subsequently loaded with a voltage sensing dye.
# 2. Identification of Corrector Compounds
# To identify correctors of F508del, a single-addition HTS assay format was developed. This HTS assay utilizes fluorescent voltage sensing dyes to measure changes in membrane potential on the FLIPR III as a measurement for increase in gating (conductance) of F508del in F508del NIH 3T3 cells. The F508del NIH 3T3 cell cultures were incubated with the corrector compounds at a range of concentrations for 18-24 hours at 37° C., and subsequently loaded with a redistribution dye. The driving force for the response is a Cl^− ion gradient in conjunction with channel activation with forskolin in a single liquid addition step using a fluorescent plate reader such as FLIPR III.
# Bath Solution #1: (in mM) NaCl 160, KCl 4.5, CaCl2) 2, MgCl2 1, HEPES 10, pH 7.4 with NaOH.
# Chloride-free bath solution: Chloride salts in Bath Solution #1 (above) are substituted with gluconate salts.
# NIH3T3 mouse fibroblasts stably expressing F508del are used for optical measurements of membrane potential. The cells are maintained at 37° C. in 5% CO2 and 90% humidity in Dulbecco's modified Eagle's medium supplemented with 2 mM glutamine, 10% fetal bovine serum, 1×NEAA, b-ME, 1×pen/strep, and 25 mM HEPES in 175 cm^2 culture flasks. For all optical assays, the cells were seeded at ˜20,000/well in 384-well matrigel-coated plates. For the correction assays, the cells are cultured at 37° C. with and without compounds for 16-24 hours.
# [2] = molecular target: T2, CFTR (Homo sapiens, UniProt P13569); test: Membrane Potential Dye, Enteroid Assay A; details: for EC50: read-out: Ent. A EC50
# Method in brief: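 Enteroid cells were loaded with methyl oxonol membrane potential dye (plus CaCCinh-A01 and Chicago Sky Blue) for 25 min at room temperature. Chloride transport was started by switching to chloride-free gluconate stimulation solution, with fluorescence read for 15 min. Activity was expressed as % of a triple-combination CFTR modulator control (3 μM, 3 μM, 300 nM acute).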
# [3] = molecular target: T2, CFTR; test: Membrane Potential Dye, Enteroid Assay B; details: for EC50: read-out: Ent. B EC50
# Procedure: Base medium (ADF+++) consisted of Advanced DMEM/Ham's F12, 2 mM Glutamax, 10 mM HEPES, […] penicillin/streptomycin.
# Bath 1 Buffer consisted of 1 mM MgCl2, 160 mM NaCl, 4.5 mM KCl, 10 mM HEPES, 10 mM Glucose, 2 mM CaCl2).
# Chloride Free Buffer consisted of 1 mM Magnesium Gluconate, 2 mM Calcium Gluconate, 4.5 mM Potassium Gluconate, 160 mM Sodium Gluconate, 10 mM HEPES, 10 mM Glucose.
# Bath 1 Dye Solution consisted of Bath 1 Buffer, 0.04% Pluronic F127, 20 μM Methyl Oxonol, 30 μM CaCCinh-A01, 30 μM Chicago Sky Blue.
# Chloride Free Dye Solution consisted of Chloride Free Buffer, 0.04% Pluronic F127, 20 μM Methyl Oxonol, 30 μM CaCCinh-A01, 30 μM Chicago Sky Blue.
# 3. Enteroid Cell Harvesting and Seeding
# Cells were recovered in cell recovery solution, collected by centrifugation at 650 rpm for 5 min at 4° C., resuspended in TryPLE and incubated for 5 min at 37° C. Cells were then collected by centrifugation at 650 rpm for 5 min at 4° C. and resuspended in IEMM containing 10 μM ROCK inhibitor (RI).
# 5. Membrane Potential Dye, Enteroid Assay B
# Briefly, cells were washed 5 times in Bath 1 Buffer. Bath 1 Dye Solution was added and the cells were incubated for 25 min at room temperature. Following dye incubation, cells were washed 3 times in Chloride Free Dye Solution. Chloride transport was initiated by addition of Chloride Free Dye Stimulation Solution and the fluorescence signal was read for 15 min.
# T2 sequence (P13569 with tags, fused parts or gaps DEL508-508): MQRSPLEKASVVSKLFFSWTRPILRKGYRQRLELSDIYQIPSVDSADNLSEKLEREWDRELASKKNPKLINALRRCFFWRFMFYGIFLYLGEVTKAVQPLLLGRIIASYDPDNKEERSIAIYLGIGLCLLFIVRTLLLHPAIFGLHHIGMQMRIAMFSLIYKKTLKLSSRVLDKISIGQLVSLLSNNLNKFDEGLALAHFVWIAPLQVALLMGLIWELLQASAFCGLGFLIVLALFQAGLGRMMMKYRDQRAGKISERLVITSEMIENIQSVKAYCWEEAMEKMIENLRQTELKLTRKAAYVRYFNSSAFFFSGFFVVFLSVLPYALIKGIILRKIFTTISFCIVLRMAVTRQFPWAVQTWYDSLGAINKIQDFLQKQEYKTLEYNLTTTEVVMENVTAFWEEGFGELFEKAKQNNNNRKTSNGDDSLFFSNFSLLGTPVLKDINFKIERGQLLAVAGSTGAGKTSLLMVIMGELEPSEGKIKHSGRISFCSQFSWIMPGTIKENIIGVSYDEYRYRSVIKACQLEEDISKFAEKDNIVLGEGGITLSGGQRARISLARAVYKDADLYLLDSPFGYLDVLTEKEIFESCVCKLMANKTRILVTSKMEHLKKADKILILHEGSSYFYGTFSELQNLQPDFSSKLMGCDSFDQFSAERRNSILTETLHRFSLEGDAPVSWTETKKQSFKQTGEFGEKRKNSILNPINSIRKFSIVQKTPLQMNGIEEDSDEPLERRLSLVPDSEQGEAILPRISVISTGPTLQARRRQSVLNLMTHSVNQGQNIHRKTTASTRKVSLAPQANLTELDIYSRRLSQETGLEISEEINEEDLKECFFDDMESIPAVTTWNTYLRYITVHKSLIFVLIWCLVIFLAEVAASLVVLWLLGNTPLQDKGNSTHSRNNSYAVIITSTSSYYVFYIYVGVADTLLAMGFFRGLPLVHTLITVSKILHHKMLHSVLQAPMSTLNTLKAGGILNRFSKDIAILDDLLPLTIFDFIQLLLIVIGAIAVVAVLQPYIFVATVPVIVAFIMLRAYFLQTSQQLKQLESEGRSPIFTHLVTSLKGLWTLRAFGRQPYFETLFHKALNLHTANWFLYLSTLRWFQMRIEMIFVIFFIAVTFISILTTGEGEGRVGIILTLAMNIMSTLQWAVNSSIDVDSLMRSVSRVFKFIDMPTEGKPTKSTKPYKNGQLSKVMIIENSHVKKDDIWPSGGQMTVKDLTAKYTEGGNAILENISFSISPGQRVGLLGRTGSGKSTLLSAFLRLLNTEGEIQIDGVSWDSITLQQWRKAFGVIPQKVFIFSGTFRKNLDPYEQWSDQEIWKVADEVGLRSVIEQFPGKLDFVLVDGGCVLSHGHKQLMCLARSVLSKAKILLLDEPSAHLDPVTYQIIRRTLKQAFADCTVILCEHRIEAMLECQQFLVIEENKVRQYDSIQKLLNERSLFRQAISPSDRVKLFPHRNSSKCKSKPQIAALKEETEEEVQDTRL
# T1 sequence (P13569 with tags, fused parts or gaps DEL508-508): as above
SMILES,Ent. B Max Activity ([3]; Table 9),EC50 ([3]; Table 9),Ent. A Max Activity ([2]; Table 9),EC50 ([2]; Table 9),also measured
"Cc1cccc(C)c1-c1cc2nc(n1)NS(=O)(=O)c1cccc(c1)C(=O)NCC(c1ccc(C3(C(F)(F)F)CC3)cc1)O2 (racemic) [Compound 9, 6-(2,6-dimethylphenyl)-10-{4-[1-(trifluoromethyl)cyclopropyl]phenyl}-9-oxa-2λ^6-thia-3,5,12,19-tetraazatricyclo[12.3.1.14,8]nonadeca-1(18),4(19),5,7,14,16-hexaene-2,2,13-trione]",,,,,Emax ([1]; Table 8): > 60%; EC50 ([1]; Table 8): < 1 µM; Ent. A Max Activity ([2]; Table 8): +++ (+++ is >60%); EC50 ([2]; Table 8): < 1 µM
"Cc1cccc(CC2CC2)c1-c1cc2nc(n1)NS(=O)(=O)c1cccc(c1)C(=O)N[C@H](CC(C)C)CO2 [Compound 107, (11R)-6-[2-(cyclopropylmethyl)-6-methyl-phenyl]-11-isobutyl-2,2-dioxo-9-oxa-2λ^6-thia-3,5,12,19-tetrazatricyclo[12.3.1.14,8]nonadeca-1(18),4(19),5,7,14,16-hexaen-13-one]",+++ (+++ is >60%),< 1 µM,+++ (+++ is >60%),< 1 µM,
Cc1cccc(C)c1-c1cc2nc(n1)NS(=O)(=O)c1cccc(c1)C(=O)NC[C@@H](c1ccc(CCC3(C(F)(F)F)CC3)cc1)O2 [Compound 146],+++ (+++ is >60%),< 1 µM,+++ (+++ is >60%),< 1 µM,
Cc1ccc2cc1C(=O)N[C@H](CC1CCCCC1)COc1cc(-c3c(C)cccc3C)nc(n1)NS2(=O)=O [Compound 161],,,,,"EC50 ([1]; NIH 3T3 cells, F508del correction): 3 to 30 µM"
Cc1cccc(Cc2cccc(C)c2-c2cc3nc(n2)NS(=O)(=O)c2cccc(c2)C(=O)N[C@H](CC(C)C)CO3)c1 [Compound 170],+++ (+++ is >60%),< 1 µM,+++ (+++ is >60%),< 1 µM,
Cc1cccc(C)c1-c1cc2nc(n1)NS(=O)(=O)c1cccc(c1)C(=O)NC(C)(CC(C)C)CO2 (stereo not drawn) [Compound 177],+++ (+++ is >60%),< 1 µM,+++ (+++ is >60%),< 1 µM,
Cc1cccc(C)c1-c1cc2nc(n1)NS(=O)(=O)c1cccc(c1)C(=O)NC[C@@H](c1ccc(CC(C)(C)C)cc1)O2 [Compound 263],++ (++ is 30-60%),< 1 µM,+++ (+++ is >60%),< 1 µM,
Cc1cccc(C)c1-c1cc2nc(n1)NS(=O)(=O)c1cccc(c1)C(=O)NC[C@@H](C1CCCCC1)O2 [Compound 269],,,,,Emax ([1]; Table 8): > 60%; EC50 ([1]; Table 8): < 1 µM
CCC(C)(C)C(=O)N1C[C@H]2NC(=O)c3cccc(c3)S(=O)(=O)Nc3nc(cc(-c4c(C)cccc4C)n3)O[C@@H]2C1 [Compound 369],++ (++ is 30-60%),,+++ (+++ is >60%),3 to 30 µM,
Cc1cccc(C)c1-c1cc2nc(n1)NS(=O)(=O)c1cccc(c1)C(=O)N[C@@H]1CN(c3ncc(C(F)(F)F)cn3)C[C@H]1O2 [Compound 372],++ (++ is 30-60%),< 1 µM,+++ (+++ is >60%),< 1 µM,
Cc1cccc(C)c1-c1cc2nc(n1)NS(=O)(=O)c1cccc(c1)C(=O)N[C@@H]1CN(C(C)C)C[C@H]1O2 [Compound 375],++ (++ is 30-60%),3 to 30 µM,+++ (+++ is >60%),3 to 30 µM,
Cc1cccc(C)c1-c1cc2nc(n1)NS(=O)(=O)c1cccc(c1)C(=O)N[C@@H]1CN(C3CCC4(CC3)CC4)C[C@H]1O2 [Compound 376],++ (++ is 30-60%),< 1 µM,+++ (+++ is >60%),< 1 µM,
Cc1cccc(C)c1-c1cc2nc(n1)NS(=O)(=O)c1cccc(c1)C(=O)N[C@@H]1CN(C3CC4(CCCCC4)C3)C[C@H]1O2 [Compound 377],++ (++ is 30-60%),< 1 µM,+++ (+++ is >60%),< 1 µM,
Cc1cccc(C)c1-c1cc2nc(n1)NS(=O)(=O)c1cccc(c1)C(=O)N[C@@H]1CN(CCC3(C(F)(F)F)CC3)C[C@H]1O2 [Compound 378],+++ (+++ is >60%),< 1 µM,+++ (+++ is >60%),< 1 µM,
Cc1cccc(C)c1-c1cc2nc(n1)NS(=O)(=O)c1cccc(c1)C(=O)N[C@@H]1CN(Cc3ccc(C(F)(F)F)cc3)C[C@H]1O2 [Compound 379],++ (++ is 30-60%),< 1 µM,+++ (+++ is >60%),< 1 µM,
Cc1cccc(C)c1-c1cc2nc(n1)NS(=O)(=O)c1cccc(c1)C(=O)N[C@@H]1CN(C(=O)CC(C)(C)C)C[C@H]1O2 [Compound 381],++ (++ is 30-60%),,++ (++ is 30-60%),3 to 30 µM,
Cc1cccc(C)c1-c1cc2nc(n1)NS(=O)(=O)c1cccc(c1)C(=O)N[C@@H]1CN(Cc3ccccc3)C[C@H]1O2 [Compound 383],+++ (+++ is >60%),< 1 µM,+++ (+++ is >60%),< 1 µM,
Cc1cccc(C)c1-c1cc2nc(n1)NS(=O)(=O)c1cccc(c1)C(=O)NCC(c1ccc(C34CC(C3)C4)cc1)O2 (stereo not drawn) [Compound 396],++ (++ is 30-60%),< 1 µM,+++ (+++ is >60%),< 1 µM,
Cc1ccc(C2CNC(=O)c3cccc(c3)S(=O)(=O)Nc3nc(cc(-c4c(C)cccc4C)n3)O2)cc1 (stereo not drawn) [Compound 405],,,,,Ent. B Max Activity ([3]; Table 8): ++ (++ is 306%); EC50 ([3]; Table 8): < 1 µM; EC50 ([2]; Table 8): < 1 µM
Cc1cccc(C)c1-c1cc2nc(n1)NS(=O)(=O)c1cccc(c1)C(=O)NCC(CC(C)C)(CC(C)C)CO2 [Compound 496],+++ (+++ is >60%),< 1 µM,+++ (+++ is >60%),< 1 µM,
